According to US8802597B2, “Herbicidal pyrimidines” (E I du Pont de Nemours and Company, priority 2003, dated 2014):

How the values were obtained:
Type in all cases: in vivo
[1] = test system: duck salad (Heteranthera limosa); test: Test B flooded paddy test; conditions: Flood, scale 0 to 100
In short: (§1)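 Visual injury scoring (0 = no effect, 100 = complete control) versus controls made 13 to 15 days after treatment in the greenhouse. Test species were grown in flooded paddy to the 2-leaf stage: rice, barnyardgrass, umbrella sedge, duck salad.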

rice (Oryza sativa) = test: Test B flooded paddy test; conditions: Flood, scale 0 to 100
In short: as §1

[2] = test system: umbrella sedge (Cyperus difformis); test: Test B flooded paddy test; conditions: Flood, scale 0 to 100
In short: as §1

[3] = test system: barnyardgrass (Echinochloa crus-galli); test: Test B flooded paddy test; conditions: Flood, scale 0 to 100
In short: as §1

[4] = test system: blackgrass (Alopecurus myosuroides); test: Test B postemergence; conditions: scale 0 to 100 (0 no effect, 100 complete control)
In short: (§2)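 Pre: compound (non-phytotoxic solvent + surfactant) applied to freshly planted seeds. Post: same formulation sprayed on 2–18 cm plants, 1- to 4-leaf. Readout: visual control rating 0–100 vs controls, 13–15 d, greenhouse.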

wild oat (Avena fatua) = test: Test B postemergence; conditions: scale 0 to 100 (0 no effect, 100 complete control)
In short: as §2

[5] = test system: crabgrass (Digitaria sanguinalis); test: Test B pre/postemergence; conditions: for Crabgrass plant response rating: Postemergence; for Plant response rating, Crabgrass: Preemergence
In short: as §2

[6] = test system: cocklebur (Xanthium strumarium); test: Test B pre/postemergence; conditions: for Cocklebur plant response rating: Postemergence; for Plant response rating, Cocklebur: Preemergence
In short: as §2

[7] = test system: morningglory (Ipomoea coccinea); test: Test B pre/postemergence; conditions: for Morningglory plant response rating: Postemergence; for Plant response rating, Morningglory: Preemergence
In short: as §2

[8] = test system: velvetleaf (Abutilon theophrasti); test: Test B pre/postemergence; conditions: for Velvetleaf plant response rating: Postemergence; for Plant response rating, Velvetleaf: Preemergence
In short: as §2

[9] = test system: Surinam grass (Brachiaria decumbens); test: Test B pre/postemergence; conditions: for Surinam Grass plant response rating: Postemergence; for Plant response rating, Surinam Grass: Preemergence
In short: as §2

[10] = test system: lambsquarters (Chenopodium album); test: Test B pre/postemergence; conditions: for Lambsquarters plant response rating: Postemergence; for Plant response rating, Lambsquarters: Preemergence
In short: as §2

[11] = test system: wheat (Triticum aestivum); test: Test B pre/postemergence; conditions: for Wheat plant response rating: Postemergence; for Plant response rating, Wheat: Preemergence
In short: as §2

[12] = test system: barnyardgrass (Echinochloa crus-galli); test: Test B pre/postemergence; conditions: for Barnyardgrass plant response rating: Postemergence; for Plant response rating, Barnyardgrass: Preemergence
In short: as §2

[13] = test system: giant foxtail (Setaria faberii); test: Test B pre/postemergence; conditions: for Foxtail, Giant plant response rating: Postemergence; for Plant response rating, Foxtail, Giant: Preemergence
In short: as §2

corn (Zea mays) = test: Test B pre/postemergence; conditions: for Corn plant response rating: Postemergence; for Plant response rating, Corn: Preemergence
In short: as §2

[14] = test system: pigweed (Amaranthus retroflexus); test: Test B pre/postemergence; conditions: for Pigweed plant response rating: Postemergence; for Plant response rating, Pigweed: Preemergence
In short: as §2

[15] = 62 g ai/ha, scale 0 to 100 (0 no effect, 100 complete control)
[16] = 125 g ai/ha, scale 0 to 100 (0 no effect, 100 complete control)
[17] = 62 g ai/ha, scale 0 to 100, 0 no effect, 100 complete control

## COC(=O)c1nc(-c2ccc(I)cc2)nc(N)c1Br [Compound 128]
[1]; 125 g ai/ha
  Plant response rating, Ducksalad: 90
[1]; 500 g ai/ha
  Plant response rating, Ducksalad: 100
Rice (Oryza sativa); 125 g ai/ha
  Plant response rating, Rice: 0
Rice (Oryza sativa); 500 g ai/ha
  Plant response rating, Rice: 0
[2]; 125 g ai/ha
  Plant response rating, Sedge, Umbrella: 90
[2]; 500 g ai/ha
  Plant response rating, Sedge, Umbrella: 100
[3]; 125 g ai/ha
  Plant response rating, Barnyardgrass: 0
[3]; 500 g ai/ha
  Plant response rating, Barnyardgrass: 30
[4]; 62 g ai/ha
  Blackgrass plant response rating: 40
[4]; 125 g ai/ha
  Blackgrass plant response rating: 50
Wild oat (Avena fatua); 62 g ai/ha
  Oat, Wild plant response rating: 0
Wild oat (Avena fatua); 125 g ai/ha
  Oat, Wild plant response rating: 40
[5]; [15]
  Crabgrass plant response rating: 20
[5]; [16]
  Crabgrass plant response rating: 40
  Plant response rating, Crabgrass: 0
[5]; [17]
  Plant response rating, Crabgrass: 0
[6]; [15]
  Cocklebur plant response rating: 70
[6]; [16]
  Cocklebur plant response rating: 90
  Plant response rating, Cocklebur: 10
[6]; [17]
  Plant response rating, Cocklebur: 0
[7]; [15]
  Morningglory plant response rating: 40
[7]; [16]
  Morningglory plant response rating: 90
  Plant response rating, Morningglory: 0
[7]; [17]
  Plant response rating, Morningglory: 0
[8]; [15]
  Velvetleaf plant response rating: 50
[8]; [16]
  Velvetleaf plant response rating: 80
  Plant response rating, Velvetleaf: 40
[8]; [17]
  Plant response rating, Velvetleaf: 0
[9]; [15]
  Surinam Grass plant response rating: 30
[9]; [16]
  Surinam Grass plant response rating: 40
  Plant response rating, Surinam Grass: 0
[9]; [17]
  Plant response rating, Surinam Grass: 0
[10]; [15]
  Lambsquarters plant response rating: 90
[10]; [16]
  Lambsquarters plant response rating: 90
  Plant response rating, Lambsquarters: 50
[10]; [17]
  Plant response rating, Lambsquarters: 10
[11]; [15]
  Wheat plant response rating: 0
[11]; [16]
  Wheat plant response rating: 20
  Plant response rating, Wheat: 0
[11]; [17]
  Plant response rating, Wheat: 0
[12]; [15]
  Barnyardgrass plant response rating: 40
[12]; [16]
  Barnyardgrass plant response rating: 60
  Plant response rating, Barnyardgrass: 10
[12]; [17]
  Plant response rating, Barnyardgrass: 0
[13]; [15]
  Foxtail, Giant plant response rating: 30
[13]; [16]
  Foxtail, Giant plant response rating: 50
  Plant response rating, Foxtail, Giant: 0
[13]; [17]
  Plant response rating, Foxtail, Giant: 0
Corn (Zea mays); [15]
  Corn plant response rating: 10
Corn (Zea mays); [16]
  Corn plant response rating: 70
  Plant response rating, Corn: 0
Corn (Zea mays); [17]
  Plant response rating, Corn: 0
[14]; [15]
  Pigweed plant response rating: 90
[14]; [16]
  Pigweed plant response rating: 90
  Plant response rating, Pigweed: 50
[14]; [17]
  Plant response rating, Pigweed: 10

## COC(=O)c1nc(-c2ccc(Br)cc2)nc(N)c1Br [Compound 129]
[1]; 125 g ai/ha
  Plant response rating, Ducksalad: 100
[1]; 500 g ai/ha
  Plant response rating, Ducksalad: 100
Rice (Oryza sativa); 125 g ai/ha
  Plant response rating, Rice: 0
Rice (Oryza sativa); 500 g ai/ha
  Plant response rating, Rice: 0
[2]; 125 g ai/ha
  Plant response rating, Sedge, Umbrella: 90
[2]; 500 g ai/ha
  Plant response rating, Sedge, Umbrella: 100
[3]; 125 g ai/ha
  Plant response rating, Barnyardgrass: 0
[3]; 500 g ai/ha
  Plant response rating, Barnyardgrass: 20
[4]; 62 g ai/ha
  Blackgrass plant response rating: 70
[4]; 125 g ai/ha
  Blackgrass plant response rating: 70
Wild oat (Avena fatua); 62 g ai/ha
  Oat, Wild plant response rating: 0
Wild oat (Avena fatua); 125 g ai/ha
  Oat, Wild plant response rating: 40
[5]; [15]
  Crabgrass plant response rating: 50
[5]; [16]
  Crabgrass plant response rating: 70
  Plant response rating, Crabgrass: 30
[5]; [17]
  Plant response rating, Crabgrass: 10
[6]; [15]
  Cocklebur plant response rating: 70
[6]; [16]
  Cocklebur plant response rating: 100
  Plant response rating, Cocklebur: 30
[6]; [17]
  Plant response rating, Cocklebur: 10
[7]; [15]
  Morningglory plant response rating: 50
[7]; [16]
  Morningglory plant response rating: 100
  Plant response rating, Morningglory: 0
[7]; [17]
  Plant response rating, Morningglory: 0
[8]; [15]
  Velvetleaf plant response rating: 80
[8]; [16]
  Velvetleaf plant response rating: 90
  Plant response rating, Velvetleaf: 60
[8]; [17]
  Plant response rating, Velvetleaf: 50
[9]; [15]
  Surinam Grass plant response rating: 50
[9]; [16]
  Surinam Grass plant response rating: 70
  Plant response rating, Surinam Grass: 10
[9]; [17]
  Plant response rating, Surinam Grass: 0
[10]; [15]
  Lambsquarters plant response rating: 100
[10]; [16]
  Lambsquarters plant response rating: 100
  Plant response rating, Lambsquarters: 80
[11]; [15]
  Wheat plant response rating: 0
[11]; [16]
  Wheat plant response rating: 20
  Plant response rating, Wheat: 20
[11]; [17]
  Plant response rating, Wheat: 0
[12]; [15]
  Barnyardgrass plant response rating: 60
[12]; [16]
  Barnyardgrass plant response rating: 70
  Plant response rating, Barnyardgrass: 30
[12]; [17]
  Plant response rating, Barnyardgrass: 10
[13]; [15]
  Foxtail, Giant plant response rating: 40
[13]; [16]
  Foxtail, Giant plant response rating: 50
  Plant response rating, Foxtail, Giant: 0
[13]; [17]
  Plant response rating, Foxtail, Giant: 0
Corn (Zea mays); [15]
  Corn plant response rating: 70
Corn (Zea mays); [16]
  Corn plant response rating: 80
  Plant response rating, Corn: 0
[14]; [15]
  Pigweed plant response rating: 100
[14]; [16]
  Pigweed plant response rating: 100
  Plant response rating, Pigweed: 90
[14]; [17]
  Plant response rating, Pigweed: 80

## CCOC(=O)c1nc(-c2ccc(I)cc2)nc(N)c1Cl [Compound 133]
[1]; 125 g ai/ha
  Plant response rating, Ducksalad: 90
[1]; 500 g ai/ha
  Plant response rating, Ducksalad: 90
Rice (Oryza sativa); 125 g ai/ha
  Plant response rating, Rice: 0
Rice (Oryza sativa); 500 g ai/ha
  Plant response rating, Rice: 0
[2]; 125 g ai/ha
  Plant response rating, Sedge, Umbrella: 90
[2]; 500 g ai/ha
  Plant response rating, Sedge, Umbrella: 90
[3]; 125 g ai/ha
  Plant response rating, Barnyardgrass: 0
[3]; 500 g ai/ha
  Plant response rating, Barnyardgrass: 0
[4]; 62 g ai/ha
  Blackgrass plant response rating: 60
[4]; 125 g ai/ha
  Blackgrass plant response rating: 70
Wild oat (Avena fatua); 62 g ai/ha
  Oat, Wild plant response rating: 40
Wild oat (Avena fatua); 125 g ai/ha
  Oat, Wild plant response rating: 60
[5]; [15]
  Crabgrass plant response rating: 60
[5]; [16]
  Crabgrass plant response rating: 70
  Plant response rating, Crabgrass: 70
[5]; [17]
  Plant response rating, Crabgrass: 40
[6]; [15]
  Cocklebur plant response rating: 100
[6]; [16]
  Cocklebur plant response rating: 100
  Plant response rating, Cocklebur: 50
[6]; [17]
  Plant response rating, Cocklebur: 20
[7]; [15]
  Morningglory plant response rating: 70
[7]; [16]
  Morningglory plant response rating: 100
  Plant response rating, Morningglory: 0
[7]; [17]
  Plant response rating, Morningglory: 0
[8]; [15]
  Velvetleaf plant response rating: 90
[8]; [16]
  Velvetleaf plant response rating: 100
  Plant response rating, Velvetleaf: 60
[8]; [17]
  Plant response rating, Velvetleaf: 50
[9]; [15]
  Surinam Grass plant response rating: 60
[9]; [16]
  Surinam Grass plant response rating: 70
  Plant response rating, Surinam Grass: 10
[9]; [17]
  Plant response rating, Surinam Grass: 0
[10]; [15]
  Lambsquarters plant response rating: 100
[10]; [16]
  Lambsquarters plant response rating: 100
  Plant response rating, Lambsquarters: 70
[11]; [15]
  Wheat plant response rating: 0
[11]; [16]
  Wheat plant response rating: 50
  Plant response rating, Wheat: 60
[11]; [17]
  Plant response rating, Wheat: 50
[12]; [15]
  Barnyardgrass plant response rating: 70
[12]; [16]
  Barnyardgrass plant response rating: 70
  Plant response rating, Barnyardgrass: 30
[12]; [17]
  Plant response rating, Barnyardgrass: 30
[13]; [15]
  Foxtail, Giant plant response rating: 60
[13]; [16]
  Foxtail, Giant plant response rating: 70
  Plant response rating, Foxtail, Giant: 20
[13]; [17]
  Plant response rating, Foxtail, Giant: 0
Corn (Zea mays); [15]
  Corn plant response rating: 70
Corn (Zea mays); [16]
  Corn plant response rating: 80
  Plant response rating, Corn: 0
Corn (Zea mays); [17]
  Plant response rating, Corn: 0
[14]; [15]
  Pigweed plant response rating: 90
[14]; [16]
  Pigweed plant response rating: 100
  Plant response rating, Pigweed: 80
[14]; [17]
  Plant response rating, Pigweed: 70
